# Measured values reported in PubChem BioAssay AID248 (DTP/NCI, 2004).
# Several values for one entry are separate records, joined by “and”; a condition that tells them apart may be missing. Equal entries are not always repeated. Inconclusive results and toxic doses are left out.
# System: L1210 leukemia ip in BDF1 mice, survival T/C
# Experiment: NCI In Vivo Anticancer Drug Screen. Data for tumor model L1210 Leukemia (intraperitoneal) in B6D2F1 (BDF1) mice
# Settings: endpoint: mean survival time, higher = longer survival
# Outline: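 Tumor cells were implanted, animals were treated, and survival was followed. The result divides the treated measurement by the vehicle-control measurement.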
# [1] = dose: 100.0 mg/kg/injection, schedule: Q04DX003 (ip), vehicle: saline
# [2] = dose: 200.0 mg/kg/injection, schedule: Q01DX009 (ip), vehicle: saline
# [3] = dose: 400.0 mg/kg/injection, schedule: Q04DX003 (ip), vehicle: saline
# [4] = dose: 200.0 mg/kg/injection, schedule: Q04DX003 (ip), vehicle: saline
# [5] = dose: 100.0 mg/kg/injection, schedule: Q01DX009 (ip), vehicle: saline with Tween-80
# [6] = dose: 200.0 mg/kg/injection, schedule: Q01DX009 (ip), vehicle: saline with Tween-80
# [7] = dose: 400.0 mg/kg/injection, schedule: Q01DX009 (ip), vehicle: saline with Tween-80
smiles,measurement,setting,value
COC(OC(CO)C(O)S(=O)(=O)O)C(O)S(=O)(=O)O (stereo unspecified),T/C,"dose: 12.5 mg/kg/injection, schedule: Q03HX008 (ip), vehicle: saline",100 % of control
same,T/C,"dose: 12.5 mg/kg/injection, schedule: Q03HX016 (ip), vehicle: saline",97 % of control
same,T/C,"dose: 12.5 mg/kg/injection, schedule: Q03HX024 (ip), vehicle: saline",102 % of control
same,T/C,"dose: 25.0 mg/kg/injection, schedule: Q03HX008 (ip), vehicle: saline",97 % of control
same,T/C,"dose: 25.0 mg/kg/injection, schedule: Q03HX016 (ip), vehicle: saline",102 % of control
same,T/C,"dose: 25.0 mg/kg/injection, schedule: Q03HX024 (ip), vehicle: saline",107 % of control
same,T/C,"dose: 35.0 mg/kg/injection, schedule: Q01DX001 (ip), vehicle: saline",105 % of control and 114 % of control
same,T/C,"dose: 35.0 mg/kg/injection, schedule: Q01DX009 (ip), vehicle: saline",123 % of control
same,T/C,"dose: 50.0 mg/kg/injection, schedule: Q01DX009 (sc), vehicle: saline",107 % of control
same,T/C,"dose: 50.0 mg/kg/injection, schedule: Q03HX008 (ip), vehicle: saline",117 % of control
same,T/C,"dose: 50.0 mg/kg/injection, schedule: Q03HX016 (ip), vehicle: saline",113 % of control
same,T/C,"dose: 50.0 mg/kg/injection, schedule: Q03HX024 (ip), vehicle: saline",122 % of control
same,T/C,"dose: 70.0 mg/kg/injection, schedule: Q01DX001 (ip), vehicle: saline",112 % of control and 121 % of control
same,T/C,"dose: 100.0 mg/kg/injection, schedule: Q01DX001 (ip), vehicle: saline",244 % of control
same,T/C,"dose: 100.0 mg/kg/injection, schedule: Q01DX009 (oral), vehicle: saline",107 % of control
same,T/C,"dose: 100.0 mg/kg/injection, schedule: Q01DX009 (sc), vehicle: saline",115 % of control
same,T/C,"dose: 100.0 mg/kg/injection, schedule: Q03HX008 (ip), vehicle: saline",152 % of control
same,T/C,"dose: 100.0 mg/kg/injection, schedule: Q03HX024 (ip), vehicle: saline",167 % of control
same,T/C,[1],122 % of control
same,T/C,"dose: 140.0 mg/kg/injection, schedule: Q01DX001 (ip), vehicle: saline",120 % of control and 121 % of control
same,T/C,[2],151 % of control
same,T/C,"dose: 200.0 mg/kg/injection, schedule: Q01DX009 (oral), vehicle: saline",116 % of control
same,T/C,"dose: 200.0 mg/kg/injection, schedule: Q01DX009 (sc), vehicle: saline",113 % of control
same,T/C,"dose: 280.0 mg/kg/injection, schedule: Q01DX001 (ip), vehicle: saline",124 % of control
same,T/C,"dose: 280.0 mg/kg/injection, schedule: Q01DX009 (ip), vehicle: saline",152 % of control
same,T/C,"dose: 400.0 mg/kg/injection, schedule: Q01DX001 (ip), vehicle: saline",194 % of control
same,T/C,"dose: 400.0 mg/kg/injection, schedule: Q01DX009 (oral), vehicle: saline",116 % of control
same,T/C,[3],151 % of control
same,T/C,"dose: 800.0 mg/kg/injection, schedule: Q01DX009 (oral), vehicle: saline",103 % of control
Cc1cccc(NC(=O)Nc2cccc(Cl)c2Cl)n1,T/C,"dose: 100.0 mg/kg/injection, schedule: Q01DX009 (ip), vehicle: Klucel (hydroxypropylcellulose) (HPC)",92 % of control
same,T/C,"dose: 100.0 mg/kg/injection, schedule: Q04DX002 (ip), vehicle: Klucel (hydroxypropylcellulose) (HPC)",89 % of control
same,T/C,"dose: 200.0 mg/kg/injection, schedule: Q01DX009 (ip), vehicle: Klucel (hydroxypropylcellulose) (HPC)",92 % of control
same,T/C,"dose: 200.0 mg/kg/injection, schedule: Q04DX002 (ip), vehicle: Klucel (hydroxypropylcellulose) (HPC)",92 % of control
same,T/C,"dose: 400.0 mg/kg/injection, schedule: Q04DX002 (ip), vehicle: Klucel (hydroxypropylcellulose) (HPC)",103 % of control
CCN(CC)CCSC(=O)C(O)(c1ccc(C)cc1)c1ccc(C)cc1,T/C,"dose: 75.0 mg/kg/injection, schedule: Q01DX001 (ip), vehicle: other",90 % of control
same,T/C,"dose: 150.0 mg/kg/injection, schedule: Q01DX001 (ip), vehicle: other",96 % of control
CC(C)(C)C(=O)CC(=O)C(C)(C)C.CC(C)(C)C(=O)CC(=O)C(C)(C)C.CC(C)(C)C(=O)CC(=O)C(C)(C)C.CC(C)(C)C(=O)CC(=O)C(C)(C)C.[Th],T/C,"dose: 100.0 mg/kg/injection, schedule: Q04DX003 (ip), vehicle: saline with Tween-80",96 % of control
same,T/C,"dose: 200.0 mg/kg/injection, schedule: Q04DX003 (ip), vehicle: saline with Tween-80",98 % of control
same,T/C,"dose: 400.0 mg/kg/injection, schedule: Q04DX003 (ip), vehicle: saline with Tween-80",90 % of control
CCOC(=O)N/N=C\C(C)=N\NC(=O)OCC,T/C,"dose: 15.0 mg/kg/injection, schedule: Q01DX Z (ip), vehicle: carboxymethylcellulose (CMC)",105 % of control
same,T/C,"dose: 30.0 mg/kg/injection, schedule: Q01DX Z (ip), vehicle: carboxymethylcellulose (CMC)",98 % of control
same,T/C,"dose: 60.0 mg/kg/injection, schedule: Q01DX Z (ip), vehicle: carboxymethylcellulose (CMC)",97 % of control and 105 % of control
same,T/C,"dose: 120.0 mg/kg/injection, schedule: Q01DX Z (ip), vehicle: carboxymethylcellulose (CMC)",94 % of control and 97 % of control
same,T/C,"dose: 240.0 mg/kg/injection, schedule: Q01DX Z (ip), vehicle: carboxymethylcellulose (CMC)",96 % of control
same,T/C,"dose: 480.0 mg/kg/injection, schedule: Q01DX Z (ip), vehicle: carboxymethylcellulose (CMC)",87 % of control
COC1OC(CBr)C(Br)C(OC(=O)c2ccccc2)C1OC(=O)c1ccccc1 (stereo unspecified),T/C,"dose: 75.0 mg/kg/injection, schedule: Q04DX002 (ip), vehicle: Klucel (hydroxypropylcellulose) (HPC)",103 % of control
same,T/C,"dose: 150.0 mg/kg/injection, schedule: Q04DX002 (ip), vehicle: Klucel (hydroxypropylcellulose) (HPC)",98 % of control
same,T/C,"dose: 300.0 mg/kg/injection, schedule: Q04DX002 (ip), vehicle: Klucel (hydroxypropylcellulose) (HPC)",98 % of control
CCCC(NC(=O)CCl)C(=O)O (stereo unspecified),T/C,[1],96 % of control
same,T/C,[4],101 % of control
CCN=C(NCC)Nc1ccc(NC(=O)Nc2ccc(NC(=O)Nc3ccc(NC(=NCC)NCC)cc3)cc2)cc1,T/C,"dose: 1.0 mg/kg/injection, schedule: Q01DX Z (ip), vehicle: carboxymethylcellulose (CMC)",97 % of control
same,T/C,"dose: 2.0 mg/kg/injection, schedule: Q01DX Z (ip), vehicle: carboxymethylcellulose (CMC)",96 % of control
same,T/C,"dose: 4.1 mg/kg/injection, schedule: Q01DX Z (ip), vehicle: carboxymethylcellulose (CMC)",102 % of control
same,T/C,"dose: 8.3 mg/kg/injection, schedule: Q01DX Z (ip), vehicle: carboxymethylcellulose (CMC)",111 % of control
CCOC(=O)C(C)Oc1cc(C)c(Cl)cc1Cl (stereo unspecified),T/C,"dose: 50.0 mg/kg/injection, schedule: Q01DX001 (ip), vehicle: carboxymethylcellulose (CMC)",96 % of control
same,T/C,"dose: 100.0 mg/kg/injection, schedule: Q01DX001 (ip), vehicle: carboxymethylcellulose (CMC)",96 % of control
same,T/C,"dose: 200.0 mg/kg/injection, schedule: Q01DX001 (ip), vehicle: carboxymethylcellulose (CMC)",107 % of control
same,T/C,"dose: 400.0 mg/kg/injection, schedule: Q01DX001 (ip), vehicle: carboxymethylcellulose (CMC)",107 % of control
CC(=O)Nc1ccc(OC(=O)Nc2ccc([N+](=O)[O-])cc2Cl)cc1,T/C,"dose: 100.0 mg/kg/injection, schedule: Q01DX009 (ip), vehicle: saline",102 % of control
same,T/C,[1],103 % of control
same,T/C,[2],104 % of control
same,T/C,[4],100 % of control
same,T/C,"dose: 400.0 mg/kg/injection, schedule: Q01DX009 (ip), vehicle: saline",104 % of control
same,T/C,[3],103 % of control
Cc1ccc2nc(-c3ccccc3N)[nH]c2c1,T/C,[5],97 % of control
same,T/C,[6],92 % of control
same,T/C,[7],92 % of control
COc1ccc(OC(=O)Nc2ccc(C)cc2Cl)cc1,T/C,[5],96 % of control and 104 % of control
same,T/C,"dose: 100.0 mg/kg/injection, schedule: Q04DX002 (ip), vehicle: saline with Tween-80",103 % of control and 104 % of control
same,T/C,[6],97 % of control and 105 % of control
same,T/C,"dose: 200.0 mg/kg/injection, schedule: Q04DX002 (ip), vehicle: saline with Tween-80",100 % of control and 107 % of control
same,T/C,[7],105 % of control and 108 % of control
same,T/C,"dose: 400.0 mg/kg/injection, schedule: Q04DX002 (ip), vehicle: saline with Tween-80",96 % of control and 106 % of control
O=c1cc(NCc2c(Cl)cccc2[N+](=O)[O-])[nH]c(=O)[nH]1,T/C,"dose: 100.0 mg/kg/injection, schedule: Q04DX003 (ip), vehicle: Klucel (hydroxypropylcellulose) (HPC)",98 % of control
same,T/C,"dose: 200.0 mg/kg/injection, schedule: Q04DX003 (ip), vehicle: Klucel (hydroxypropylcellulose) (HPC)",95 % of control
same,T/C,"dose: 400.0 mg/kg/injection, schedule: Q04DX003 (ip), vehicle: Klucel (hydroxypropylcellulose) (HPC)",95 % of control
